The assay relates to eIF2α in HEK293-EGFP-eIF2α cells. The assay can be described thus: PERK Cellular Assay (HEK293-EGFP-eIF2α cells, tunicamycin-induced ER stress, TR-FRET). The format is cell-based. To be noted: tunicamycin 2 hours. The protocol: Stable cell lines were created in HEK293 cells using lentiviral particles harboring an expression vector for GFP-eIF2α. Cells were selected using puromycin and enriched using fluorescence activated cell sorting against GFP. HEK293-EGFP-eIF2α cells were plated at 5000 cells/well in 384-well assay plates and incubated overnight at 37° C., 5% CO2. Inhibitor compounds were added to the wells by Echo acoustic dispensing and incubated for 30 minutes at 37° C., 5% CO2 prior to induction of ER stress by addition of tunicamycin to […] for 2 hours. Cells were lysed and TR-FRET was measured in an EnVision plate reader (PerkinElmer). FRET ratio data was normalized to signal from lysates treated with DMSO vehicle control and plotted as percent inhibition against 10-point; 3-fold dilution series of inhibitors. IC50 values were calculated using 4-parameter logistical fitting in XLFit.
(In general: TR-FRET usually uses a lanthanide donor and a delayed reading to cut background.)
For the molecule `[2H]C([2H])([2H])c1nc(-c2ccc(NC(=O)C(O)c3cccc(F)c3)cc2C)c2c(N)ncc(C)n12` (centres unmarked) [Example 11, N-(4-(8-amino-5-methyl-3-(trideuteriomethyl)imidazo[1,5-a]pyrazin-1-yl)-3-methylphenyl)-2-(3-fluorophenyl)-2-hydroxyacetamide], the IC50 (in general, the concentration that inhibits the measured activity by half) lay in the range of 1 to 25 nM. To `Cc1cn2c(C3CC(C)(O)C3)nc(-c3ccc(NC(=O)C(O)c4cccc(F)c4)cc3C)c2c(N)n1` (centres unmarked) [Example 24, N-(4-(8-amino-3-(3-hydroxy-3-methylcyclobutyl)-6-methylimidazo [1,5-a]pyrazin-1-yl)-3-methyl-phenyl)-2-(3-fluorophenyl)-2-hydroxyacetamide] belongs 101 to 250 nM. Under `Cc1cn2c(C3CC(C)(O)C3)nc(-c3ccc(NC(=O)C(O)c4cccc(F)c4)cc3C)c2c(N)n1` (centres unmarked) [Example 25, N-(4-(8-amino-3-(3-hydroxy-3-methylcyclobutyl)-6-methylimidazo [1,5-a]pyrazin-1-yl)-3-methyl-phenyl)-2-(3-fluorophenyl)-2-hydroxyacetamide] stands 1000 to 2000 nM; under `[2H]C([2H])([2H])c1nc(-c2ccc(NC(=O)C(O)c3cc(F)cc(F)c3)cc2C)c2c(N)ncc(Cl)n12` (centres unmarked) [Example 49, N-[4-[8-amino-5-chloro-3-(trideuteriomethyl)imidazo[1,5-a]pyrazin-1-yl]-3-methyl-phenyl]-2-(3,5-difluoro-phenyl)-2-hydroxy-acetamide], 1 to 25 nM.

`[2H]C([2H])([2H])c1nc(-c2ccc(NC(=O)C(O)c3cccc(C(F)(F)F)c3)cc2F)c2c(N)nc(C)cn12` (centres unmarked) [Example 97, N-[4-[8-amino-6-methyl-3-(trideuteriomethyl)imidazo[1,5-a]pyrazin-1-yl]-3-fluoro-phenyl]-2-hydroxy-2-[3-(trifluoromethyl)phenyl]acetamide] registered an IC50 of 251 to 500 nM. To `[2H]C([2H])([2H])c1nc(-c2ccc(NC(=O)C(O)c3cccc(C(F)(F)F)c3)cc2F)c2c(N)ncc(Cl)n12` (centres unmarked) [Example 101, N-[4-[8-amino-5-chloro-3-(trideuteriomethyl)imidazo[1,5-a]pyrazin-1-yl]-3-fluoro-phenyl]-2-hydroxy-2-[3-(trifluoromethyl)phenyl]acetamide] belongs 1 to 25 nM; to `[2H]C([2H])([2H])c1nc(-c2ccc(NC(=O)C(O)c3cc(F)cc(F)c3)cc2F)c2c(N)ncc(Cl)n12` (centres unmarked) [Example 109, N-[4-[8-amino-5-chloro-3-(trideuteriomethyl)imidazo[1,5-a]pyrazin-1-yl]-3-fluoro-phenyl]-2-(3,5-difluoro-phenyl)-2-hydroxy-acetamide], 1 to 25 nM. For the molecule `Cc1cn2c(C)nc(-c3ccc(NC(=O)C(O)c4cccc(F)c4)c(F)c3)c2c(N)n1` (centres unmarked) [Example 118, N-(4-(8-amino-3,6-dimethyl-imidazo[1,5-a]pyrazin-1-yl)-2-fluorophenyl)-2-(3-fluorophenyl)-2-hydroxy-acetamide], the IC50 was in the range of 4000 to 5000 nM. Under `Cc1cn2c(C)nc(-c3ccc(NC(=O)C(O)c4cccc(F)c4)c(F)c3)c2c(N)n1` (centres unmarked) [Example 119, N-(4-(8-amino-3,6-dimethyl-imidazo[1,5-a]pyrazin-1-yl)-2-fluorophenyl)-2-(3-fluorophenyl)-2-hydroxy-acetamide] stands 26 to 50 nM; under `[2H]C([2H])([2H])c1nc(-c2ccc(NC(=O)C(O)c3cccc(F)c3)c(F)c2)c2c(N)nc(C)cn12` (centres unmarked) [Example 120, N-[4-[8-amino-6-methyl-3-(trideuteriomethyl)imidazo[1,5-a]pyrazin-1-yl]-2-fluorophenyl]-2-(3-fluorophenyl)-2-hydroxy-acetamide], 1000 to 2000 nM. Under `[2H]C([2H])([2H])c1nc(-c2ccc(NC(=O)C(O)c3cccc(F)c3)c(F)c2)c2c(N)nc(C)cn12` (centres unmarked) [Example 121, N-[4-[8-amino-6-methyl-3-(trideuteriomethyl)imidazo[1,5-a]pyrazin-1-yl]-2-fluorophenyl]-2-(3-fluorophenyl)-2-hydroxy-acetamide] stands 51 to 100 nM.
